Test results from patent US8835500B2, “Pharmaceutical formulations of amyloid inhibiting compounds” (BHI Limited Partership, priority 2003, dated 2014).

Columns and labels:
CSF Aβ42 = CSF Aβ42 and Aβ42/Aβ40 ratio in mild-to-moderate AD patients; type: in vivo, human
Experimental: FIG. 1 Change from Baseline CSF Aβ42 versus 3-APS doses
FIG. 2 Effect of 3-APS on CSF Aβ42/40 Ratio in Mild-to-Moderate AD Patients—Placebo vs. 150 mg BID

[1] = Single rising oral dose pharmacokinetics of NC-758 in healthy young and elderly male volunteers (Example 7); type: in vivo, human; details: for Tmax: median
From the text: (§1) In the following examples and elsewhere herein, terms are as defined below. The pharmacokinetic parameters were derived by non-compartmental analysis using WinNonlin Version 2.1. • Cmax—the maximum observed plasma concentration. • Tmax—the time of occurrence of Cmax. • AUC0-t—the area under the plasma concentration versus time curve from time zero to the last sampling time at which concentrations were at or above the limit of quantification, calculated by the linear trapezoidal rule. • AUC∞—the area under the plasma concentrations versus time curve from time zero to infinity, calculated from AUC0-t+(Clast/λz), where Clast is the last observed quantifiable concentration and λz is the apparent terminal rate constant. • t1/2—the apparent terminal half-life, calculated from 1n 2λz.
The pharmacokinetic profile and the effect of food on single rising oral doses of 3-APS free acid (modified-release enteric-coated tablet, as described in Table 3 above, hereinafter “NC-758”) in healthy male young (18-45 years) volunteers was determined. The pharmacokinetics of a single oral dose of NC-758 was also determined in a group of healthy male elderly (≧55 years old) volunteers. The test was a randomized, double-blind, placebo-controlled study to assess the pharmacokinetic profile of 4 single rising oral doses of NC-758 in healthy young (18-45 years) male subjects. Blood samples were collected during 24 h following dosing. Plasma concentrations of 3-APS were determined using a validated LC-MS/MS method.

[2] = Pharmacokinetics of NC-758-1 in mild to moderate Alzheimer's Disease patients, 12 weeks BID (Example 10); type: in vivo; details: human, plasma, oral, AD patients; for Tmax: median
[3] = Single oral dose pharmacokinetics of NC-758-1 in healthy elderly volunteers (Example 9); type: in vivo, human; details: elderly (≧55 years) male and female subjects, fasted; for Tmax: median
From the text: as §1
The pharmacokinetic profile and the effect of food on single oral doses of 3-APS free acid (modified-release enteric-coated tablet as described in Table 5 above, hereinafter “NC-758-1”) in healthy male and female elderly (≧55 years) volunteers. The test was an open label, three-period crossover study to assess the pharmacokinetic profile of 3 single oral doses of NC-758-1 in healthy elderly (≧55 years) male and female subjects. The blood samples were collected during 24 h following dosing. Plasma concentrations of 3-APS were determined using a validated LC-MS/MS method.

[4] = Part I: multiple rising oral dose pharmacokinetics of NC-758 in healthy young and elderly subjects (Example 8); type: in vivo, human; details: fasted; for Tmax: median
From the text: as §1
The pharmacokinetic profile of multiple rising oral doses of 3-APS free acid (NC-758 of Table 3 above) in healthy male young subjects (18-45 years) and healthy male and female elderly (≧55 years) subjects was assessed. The pharmacokinetic profile of a titrated multiple oral rising dose regimen of NC-758 was also assessed in one group of healthy male young (18-45 years) subjects. […] Part I was a randomized, double-blind, placebo-controlled study to assess the pharmacokinetic profile of 2 multiple rising oral doses of NC-758 in healthy young (18-45 years) male subjects. […] In Part I, blood samples were collected through 24 h after the first dose on Day 1, before each morning dose on Days 2 to 11, and through 48 h after the final dose on Day 12. For Part II, blood samples were collected through 36 and 48 h, respectively. Plasma concentrations of 3-APS were determined using a validated LC-MS/MS method.

[5] = Pharmacokinetics of NC-758-1 in mild to moderate Alzheimer's Disease patients, 12 weeks BID (Example 10); type: in vivo; details: human, plasma, oral, AD patients; for AUC(0-inf): only patients with estimable elimination rate constant; for Tmax: median
From the text: as §1
A multicenter, randomized, double-blind, placebo-controlled and parallel designed study has been completed with NC-758-1 from Table 5 above in patients suffering from mild to moderate Alzheimer's Disease (AD). This study included assessing the pharmacokinetic/pharmacodynamic profile in AD patients.
A total of fifty-eight (58) mild to moderate AD patients (MMSE scores=13 to 26) were enrolled from 6 centers in the United States. Patients were randomized to receive in 1:1:1:1 ratio of NC-758-1 at 50, […], 150 mg BID or placebo BID for 12 weeks. Study medication was administered orally (tablet). Each patient was evaluated on 6 occasions at screening, baseline [Week 0], weeks 2, 4, 8 and 12. Blood samples were collected from each patient prior to dosing and at specified time points through 12 h post-dose after the first dose (Week 0) and the last dose (Week 12). Blood samples were also collected prior to the first dose of the day during Week 2, 4 and 8 visits.

[6] = dog, in vivo
Experimental: (§2) Furthermore, the non-hygroscopic nature of the acid form makes it desirable as active pharmaceutical ingredient. To further protect against any possible gastrointestinal intolerance that could result from the acid form, the tablets were enteric-coated and a modified-release agent was added to control any rapid release of the drug in the stomach and the intestine, respectively.

[7] = Hygroscopic nature of the active ingredient; type: physicochemical
[8] = Crossing of the blood/brain barrier; parameters: species or system human; details: in vivo
[9] = Gastrointestinal symptoms after administration of solid dosage form (capsules); type: in vivo
Experimental: as §2

[10] = 200 mg dose, elderly vs. young (Tables 9 and 10)
[11] = 50 mg, Alzhemed (NC-758-1) 50 mg BID, Week 0 (single dose), mean
[12] = 150 mg, Alzhemed (NC-758-1) 150 mg BID, Week 0 (single dose), mean

Structure (SMILES): NCCCS(=O)(=O)O [3-APS, 3-amino-1-propanesulfonic acid]
- ratio of Aβ42/Aβ40 (CSF Aβ42; CSF, mild-to-moderate AD patients, FIGS. 2, 3 and 4): reduced the ratio of Aβ42/Aβ40
- baseline CSF Aβ42 (CSF Aβ42; FIG. 1): reduced baseline CSF Aβ42
- AUC0-t greater in elderly subjects compared to young subjects [1, 10]: approximately 70%
- Cmax greater in elderly subjects compared to young subjects [1, 10]: approximately 70%
- Tmax ([1]; NC-758 single oral 200 mg, elderly (>55 years) male subjects, fasted): 5 h
- Tmax ([1]; NC-758 single oral 200 mg, young (18-45 years) male subjects, fasted): 5 h
- Tmax ([1]; NC-758 single oral 300 mg, young (18-45 years) male subjects, fasted): 5 h
- Tmax ([1]; human, plasma, NC-758 single oral 100 mg, young (18-45 years) male subjects, fasted, read-out: Tmax): 5 h
- AUC(0-inf) ([1]; human, plasma, NC-758 single oral 200 mg, elderly (>55 years) male subjects, fasted, calculated for one individual only): 5760 ng·h/mL
- Cmax ([2]; 50 mg, Alzhemed (NC-758-1) 50 mg BID, Week 12 (repeated), mean): 451 ng/mL
- AUC(0-t) ([2]; 50 mg, Alzhemed (NC-758-1) 50 mg BID, Week 12 (repeated), mean, read-out: AUC0-t (AUCss for Week 12)): 1980 ng·h/mL
- Tmax ([2]; 50 mg, Alzhemed (NC-758-1) 50 mg BID, Week 12 (repeated)): 3 h
- Cmax ([2]; 100 mg, Alzhemed (NC-758-1) 100 mg BID, Week 0 (single dose), mean): ~618 ng/mL
- AUC(0-inf) ([2]; 100 mg, Alzhemed (NC-758-1) 100 mg BID, Week 0 (single dose), mean, only patients with estimable elimination rate constant): ~2570 ng·h/mL
- AUC(0-t) ([2]; 100 mg, Alzhemed (NC-758-1) 100 mg BID, Week 0 (single dose), mean, read-out: AUC0-t): ~2470 ng·h/mL
- Tmax ([2]; 100 mg, Alzhemed (NC-758-1) 100 mg BID, Week 0 (single dose)): ~4.7 h
- Cmax ([2]; 100 mg, Alzhemed (NC-758-1) 100 mg BID, Week 12 (repeated), mean): 538 ng/mL
- AUC(0-t) ([2]; 100 mg, Alzhemed (NC-758-1) 100 mg BID, Week 12 (repeated), mean, read-out: AUC0-t (AUCss for Week 12)): 2590 ng·h/mL
- Tmax ([2]; 100 mg, Alzhemed (NC-758-1) 100 mg BID, Week 12 (repeated)): 3.5 h
- AUC(0-t) ([2]; 150 mg, Alzhemed (NC-758-1) 150 mg BID, Week 0 (single dose), mean, read-out: AUC0-t): ~2790 ng·h/mL
- AUC(0-t) ([2]; 150 mg, Alzhemed (NC-758-1) 150 mg BID, Week 12 (repeated), mean, read-out: AUC0-t (AUCss for Week 12)): 3570 ng·h/mL
- Tmax ([2]; 150 mg, Alzhemed (NC-758-1) 150 mg BID, Week 12 (repeated)): 3 h
- Tmax ([3]; NC-758-1 single oral 50 mg): 5 h
- Tmax ([3]; NC-758-1 single oral 100 mg): 5 h
- AUC∞ ([3]; NC-758-1 single oral 150 mg, mean, only subjects with estimable elimination rate constant): 4497 ng·h/mL
- Tmax ([3]; NC-758-1 single oral 150 mg): 5 h
- Tmax ([4]; NC-758 200 mg BID, Day 1, elderly (≧55 years) male and female subjects): 6 h
- Tmax ([4]; NC-758 200 mg BID, Day 12, young (18-45 years) male subjects): 4 h
- Tmax ([4]; both sexes, human, plasma, oral, 200 mg, NC-758 200 mg BID, Day 12, elderly (≧55 years) male and female subjects, read-out: Tmax): 5 h
- AUC(0-t) ([4]; human, plasma, oral, NC-758 100 mg BID, Day 1, young (18-45 years) male subjects, mean, read-out: AUC0-12 h): 1330 ng·h/mL
- Tmax ([4]; male, human, plasma, oral, 100 mg, NC-758 100 mg BID, Day 1, young (18-45 years) male subjects, read-out: Tmax): 6 h
- Tmax ([4]; male, human, plasma, oral, 100 mg, NC-758 100 mg BID, Day 12, young (18-45 years) male subjects, read-out: Tmax): 2.5 h
- Tmax ([4]; male, human, plasma, oral, 200 mg, NC-758 200 mg BID, Day 1, young (18-45 years) male subjects, read-out: Tmax): 4 h
- AUC(0-t) [5, 11]: ~1320 ng·h/mL
- Cmax [5, 11]: ~310 ng/mL
- AUC(0-inf) [5, 11]: ~1400 ng·h/mL
- Tmax ([5]; 50 mg, Alzhemed (NC-758-1) 50 mg BID, Week 0 (single dose)): ~6 h
- Cmax [5, 12]: ~624 ng/mL
- AUC(0-inf) [5, 12]: ~3420 ng·h/mL
- Tmax ([5]; 150 mg, Alzhemed (NC-758-1) 150 mg BID, Week 0 (single dose)): ~6 h
- Cmax ([5]; 150 mg, Alzhemed (NC-758-1) 150 mg BID, Week 12 (repeated), mean): 639 ng/mL
- tolerability [6]: better tolerated than the sodium salt form
- hygroscopic nature [7]: non-hygroscopic
- crossing of the blood/brain barrier [8]: crossed the blood/brain barrier

Structure (SMILES): NCCCS(=O)(=O)[O-].[Na+] [3-amino-1-propanesulfonic acid, sodium salt]
- gastrointestinal symptoms (i.e. nausea and vomiting) [9]: associated with gastrointestinal symptoms
